# Source: patent US20090203605A1, “Methods For Treating A Condition Characterized By Dysfunction In Protein Homeostasis” (THE SCRIPPS RESEARCH INSTITUTE, priority 2008, published 2009)
# Residues, ends and D or L forms follow the SMILES beside them. *: point of attachment. Cbz = O=C(OCc1ccccc1)*
# Tests used:
# [1] = target: T1, L444P GC (Homo sapiens, UniProt P04062, L483P); assay: GC activity assay in L444P GC Gaucher patient-derived fibroblasts; format: cell-based
# T1 construct: a L444P GC Gaucher fibroblast cell line (GM08760); host or cells: Gaucher patient-derived skin fibroblasts
# T1 sequence (P04062 40-536 L483P): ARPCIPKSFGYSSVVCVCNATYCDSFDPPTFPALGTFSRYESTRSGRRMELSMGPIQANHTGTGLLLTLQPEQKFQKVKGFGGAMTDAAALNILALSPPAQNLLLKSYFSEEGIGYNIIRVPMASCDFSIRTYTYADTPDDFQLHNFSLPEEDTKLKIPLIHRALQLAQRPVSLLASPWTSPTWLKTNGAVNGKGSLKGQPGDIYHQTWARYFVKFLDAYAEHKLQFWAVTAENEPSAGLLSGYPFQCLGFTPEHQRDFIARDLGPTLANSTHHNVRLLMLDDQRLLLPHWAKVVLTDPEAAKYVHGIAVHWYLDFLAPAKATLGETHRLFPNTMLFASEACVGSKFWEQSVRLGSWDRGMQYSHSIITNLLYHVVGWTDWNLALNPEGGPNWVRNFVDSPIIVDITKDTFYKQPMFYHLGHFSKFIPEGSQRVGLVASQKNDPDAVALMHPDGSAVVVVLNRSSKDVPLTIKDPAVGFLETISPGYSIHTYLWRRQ
# [2] = system: chaperone, CHOP and GC mRNA expression levels; assay: Quantitative RT-PCR in L444P GC fibroblasts; format: cell-based, human
# Excerpt: The relative mRNA expression levels of representative cytoplasmic HSR-associated chaperones (Hsp40, Hsp70, Hsp90, Hsp27, αB-crystallin), ER lumenal UPR-associated chaperones (BiP, GRP94, calreticulin), and the ER chaperone calnexin were monitored and their reported levels were normalized to the levels in untreated cells (FIGS. 5A and B). The levels of glyceraldehyde-3-phosphate dehydrogenase, monitored as a housekeeping control, were unchanged in treated and untreated cells.
# Quantitative RT-PCR. […] The forward and reverse primers for Hsp40, Hsp70, Hsp90, Hsp27, αB-crystallin (CRYAB), BiP, GRP94, calnexin (CNX), calreticulin (CRT), Xbp-1, and CHOP, and an endogenous housekeeping gene GAPDH are listed in Table 2. […] Each data point was evaluated in triplicate, and measured three times.
# [3] = system: Hsp70, HSF1, BiP, Hsp40, Hsp90; assay: Western blot of chaperone and HSF1 protein levels in L444P GC fibroblasts; format: cell-based, human
# Description: To correlate changes in Hsp70 chaperone levels with the celastrol-mediated transcriptional increase in Hsp70, as well as to investigate the temporal dependence of the change in Hsp70 levels, L444P GC fibroblasts were subjected to a single celastrol exposure (0.8 μM) for the period indicated and Hsp70 expression levels in cell lysates were analyzed by Western blot analysis. […] Hsp70, a product of HSR activation, has been implicated in HSR autoregulation by binding to HSF1, thereby repressing heat shock gene transcription (FIG. 7). Morimoto, Genes Dev 12: 3788-3796, 1998; Westerheide et al., J Biol Chem 280: 33097-33100, 2005.
# Since HSF1 is likely to be responsible for celastrol's induction of the HSR we monitored HSF1 levels. Westerheide et al., J Biol Chem 279: 56053-56060, 2004. […] Awasthi, et al., Invest Opthalmol Vis Sci 46: 2082-2091, 2005; Bush et al., J Biol Chem 272: 9086-9092, 1997.
# Western blot analyses. […] Total cell protein was determined with Micro BCA assay reagent (Pierce, Rockford, Ill.) and each sample was diluted to the same protein concentration. […] The western blot bands of the endoH treated samples were quantified by Java Image processing and analysis software from the NIH (http://rsb.info.nih.gov/ij/).
# Western blot. […] Total cell protein was measured using the Micro BCA assay reagent. […]
# [4] = system: L444P GC; format: cell-based, human; conditions: MG-132 0.25 μM for 3 d; diltiazem 10 μM for 14 days
# Excerpt: (§1) Immunofluorescence. Immunofluorescence has been previously described.
# as §1
# [5] = diltiazem 10 μM, 7-day treatment
Compound,"L444P GC activity as % of WT GC activity ([1]; MG-132 single exposure, after 120 h (FIG. 2A))","transcription of Hsp27 ([2]; 0.8 μM, 24 h)","transcription of calnexin ([2]; 0.8 μM, 24 h)","mRNA expression level of BiP ([2]; 0.8 μM, 2, 4, 6 and 24 h)","mRNA expression level of CHOP ([2]; 0.8 μM, 2, 4, 6 and 24 h)","HSF1 protein levels ([3]; 0.8 μM, over 24 h)",colocalization of L444P GC with lysosomal marker LAMP2 [4],"direct activation of lysosomal L444P GC ([1]; 1 μM to 100 μM, 1 h, intact cell assay)","effect on L444P GC activity, intact cell GC activity assay ([1]; calcium channel blockers and ionotropic glutamate receptor inhibitors)","L444P GC activity as % of normal cellular WT GC activity ([1]; diltiazem 10 μM, 5-day incubation, type II line (FIG. 17C, left panel))","mRNA expression levels of Hsp70, GRP94, calnexin, and calreticulin [2, 5]","GC mRNA expression level vs untreated cells ([2]; diltiazem 10 μM, 6 h, 12 h, 1 day, 3 days and 5 days)","protein expression levels of BiP, Hsp40, and Hsp90 [3, 5]"
CC(C)C[C@@H](C=O)NC(=O)[C@H](CC(C)C)NC(=O)[C@H](CC(C)C)NC(=O)OCc1ccccc1 [MG-132] (Cbz-Leu-Leu-Leu-aldehyde),≈ 50.0%,did not,upregulated the transcription of calnexin significantly,BiP was also upregulated,upregulated the mRNA expression level of CHOP significantly,remained constant,exhibited colocalization with the lysosomal marker LAMP2,–,–,–,–,–,–
"COc1ccc([C@@H]2Sc3ccccc3N(CCN(C)C)C(=O)[C@@H]2OC(C)=O)cc1.Cl [diltiazem, Diltiazem hydrochloride]",–,–,–,–,–,–,L444P GC colocalized with LAMP2,No activity increase was observed,increased L444P GC activity significantly,≈ 24%,not changed significantly,No significant differences,increased protein expression levels
